pIC50: −log10 of the molar value. Where two headings read alike, the source gives them in different places.
How the values were obtained:
U266 = assay: In vitro cytotoxicity, U266 (Multiple Myeloma); type: cell-based; settings: Homo sapiens, U-266; 72 h, CellTiter-Glo 2.0; read-out: Cytotoxicity IC50, U266
Experimental: (§1) All cells were cultivated in RPMI medium 1640 (IX). All media was supplemented with 10 μg/μl penicillin/streptomycin, 10% heat inactivated FBS, 0.1 mM Sodium Pyruvate, 1×MEM NEAA (ThermoFisher) and 1 mM HEPES. The DERL-2 cells had higher FBS (20%) and 40 ng/mL IL-2 was added. hPBMCs were thawed and allowed to acclimatise overnight and then stimulated with 10 μg/mL PHA-M and 40 ng/mL IL-2 for 4 hours before being exposed to test compounds. All cells, except for hPBMCs, were grown to reach log phase before being exposed to the test compounds.
(§2) Test compounds were dissolved in 100% DMSO and added to a 384 assay plate. Additional DMSO was added to maintain the same final DMSO concentration (0.2%) in all wells. 25 μL cell suspension with a concentration of 100000 cells/mL was added to each well. The cells were cultured in a CO2 incubator at 37° C. for 72 h. Plates were equilibrated to room temperature for 30 minutes before adding 20 μL CellTiter-Glo® 2.0 (Promega) reagent to all wells. The plate was then allowed to stabilize for 20 minutes before recording the luminescence (Em filter 700 nm) in an Envision plate reader.

MM.1S cells [1] = assay: Cellular retention/efflux: intracellular and extracellular concentrations by LC-MS/MS; type: in vitro ADME, human; settings: metabolites measured after treatment with the parent Example compound
Experimental: Methods: MMA1S cells at 2×10^6 cells/mL were seeded at 250 μL per well in a 96-well plate. Cells were incubated in the presence of a test compound for 5, 15, and 60 min before pelleting cells by centrifugation at +4° C. for 5 min. Cell media was immediately harvested to a second plate and stored at −80° C. until further analysis. Pelleted cells were washed once with ice cold PBS before storage at −80° C. until further analysis.
Cells were lysed and protein in the media were precipitated using acetonitrile dimethylformamide, 9:1 containing internal standard. Samples were centrifuged and the supernatant was analyzed with LC-MS/MS (ACQUITY UPLC-Xevo TQ-S micro) to determine compound concentration.
Example compound 1, bendamustine and melphalan were used as test compounds.
Method: Method described in Biological example 3.
Example compounds 1, 2, 3, 4, 6, 7 and 10 were investigated. Intracellular metabolites are formed from all compounds tested. The compound used for cell treatment was metabolised to the ester-hydrolysed compound (here called Metabolite A) and to the amide-hydrolysed compound (called Metabolite B). The example compound structures and the structures of the two metabolites for the respective compounds were as shown in Table 4. The Metabolites B formed under the conditions tested were compounds with structure as Examples 17 and 18: […]

OPM-2 = assay: In vitro cytotoxicity, OPM-2 (Multiple Myeloma); type: cell-based; settings: Homo sapiens, OPM-2; 72 h, CellTiter-Glo 2.0; read-out: Cytotoxicity IC50, OPM-2
Experimental: as §1, §2

MM.1S cells [2] = assay: In vitro cytotoxic potency in MM.1S cell viability assay (CellTiter-Glo); type: cell-based, human; settings: Homo sapiens, MM1.S, 72 h
Method in brief: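 Log-phase MM.1S cells in supplemented RPMI 1640 were seeded at 100000 cells/mL with compound (0.2% DMSO final). After 72 h at 37 °C in CO2, viability was measured by CellTiter-Glo 2.0 luminescence.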

DERL-2 = assay: In vitro cytotoxicity, DERL-2 (T cell Lymphoma); type: cell-based; settings: Homo sapiens, 72 h, CellTiter-Glo 2.0, 20% FBS, 40 ng/mL IL-2, read-out: Cytotoxicity IC50, DERL-2
Experimental: as §1, §2

SC-1 = assay: In vitro cytotoxicity, SC-1 (B cell Lymphoma); type: cell-based; settings: Homo sapiens, SC-1; 72 h, CellTiter-Glo 2.0; read-out: Cytotoxicity IC50, SC-1
Experimental: as §1, §2

[3] = In vitro cytotoxicity, human peripheral blood mononuclear cells; type: cell-based; settings: CellTiter-Glo 2.0, stimulated with PHA-M and IL-2, read-out: Cytotoxicity IC50, hPBMC
Experimental: as §1, §2

AMO-1 = assay: In vitro cytotoxicity, AMO-1 (Multiple Myeloma); type: cell-based; settings: Homo sapiens, AMO1; 72 h, CellTiter-Glo 2.0; read-out: Cytotoxicity IC50, AMO-1
Experimental: as §1, §2

[4] = In vitro cytotoxicity, BJ fibroblasts (normal cells); type: cell-based; settings: human, CellTiter-Glo 2.0
Experimental: as §1, §2

EJM = assay: In vitro cytotoxicity, EJM (Multiple Myeloma); type: cell-based; settings: Homo sapiens, 72 h, CellTiter-Glo 2.0, read-out: Cytotoxicity IC50, EJM
Experimental: as §1, §2

THP-1 = assay: In vitro cytotoxicity, THP-1 (Acute Myeloid Leukemia); type: cell-based; settings: Homo sapiens, THP-1; 72 h, CellTiter-Glo 2.0; read-out: Cytotoxicity IC50, THP-1
Experimental: as §1, §2

SUP-T1 = assay: In vitro cytotoxicity, SUP-T1 (T cell Lymphoma); type: cell-based; settings: Homo sapiens, SUP-T1; 72 h, CellTiter-Glo 2.0; read-out: Cytotoxicity IC50, SUP-T1
Experimental: as §1, §2

RPMI-8226 = assay: In vitro cytotoxicity, RPMI-8226 (Multiple Myeloma, resistant); type: cell-based; settings: Homo sapiens, RPMI-8226; 72 h, CellTiter-Glo 2.0; read-out: Cytotoxicity IC50, RPMI-8226
Experimental: as §1, §2

KMS-12-BM = assay: In vitro cytotoxicity, KMS-12-BM (Multiple Myeloma); type: cell-based; settings: Homo sapiens, 72 h, CellTiter-Glo 2.0, read-out: Cytotoxicity IC50, KMS-12-BM
Experimental: as §1, §2

[5] = test system: DNA prepared from MM.1S cells (nuclear HPRT and mitochondrial DNA); assay: Direct DNA damage, PCR amplification of treated DNA (HPRT and mtDNA primers); type: biochemical, human; settings: 0.25 μM compound, 30 minutes, 37° C., 1 μg DNA
Experimental: Method: DNA was prepared from MM.1S cells by QIAGEN genomic tip 20/G according to protocol described in Furda et al., Methods Mol Biol, 2012. 1 μg of DNA was treated with 0.25 μM compound for 30 minutes at 37° C. DMSO was used as control treatment. 20 ng of the treated DNA was PCR amplified using Phusion Hot Start II High Fidelity PCR Master Mix (Thermo Scientific) and primers directed to either HPRT or primers directed to mitochondrial DNA (mtDNA) was used, generating 10.4 or 8.9 kb fragments, respectively. The PCR reactions were separated on a 1% agarose gel and visualized by ChemiDoc™ MP Imaging System (BioRad). Example compounds 1, 2 and 38 were investigated, as were compounds 18 and 20, which are metabolites of compound 1. They were compared with bendamustine, melphalan and DMSO control. The results for compounds 1, 2, 18 and 20 with the HPRT primers are shown in FIG. 4(A); the results with the mtDNA primers are shown in FIG. 4(B).

With `N[C@@H](Cc1ccc(N(CCCl)CCCl)cc1)C(=O)O` [Melphalan, melphalan, reference compound] the pIC50 (U266) was 4.72, the “Intracellular concentration (in words)” value (MM.1S cells [1]; MM.1S cells incubated with test compound 5, 15, 60 min) was “low intracellular concentration” and the “Extracellular concentration (in words)” value (MM.1S cells [1]; media of MM.1S cells incubated with test compound 5, 15, 60 min) was “high and constant throughout the experiment”. The pIC50 (OPM-2) was 4.99, the pIC50 (MM.1S cells [2]; read-out: Cytotoxicity IC50, MM.1S) was 5.37 and the pIC50 (MM.1S cells [2]; read-out: MM.1S IC50) was 5.37. The pIC50 (DERL-2) was 5.73, the pIC50 (SC-1) was 5.06 and the IC50 at 72 h [3] was 3.6 µM. The pIC50 (AMO-1) was 5.08, the IC50 at 72 h [4] was 104 µM and the pIC50 (EJM) was 4.40. It also gave a pIC50 (THP-1) of 5.37, a pIC50 (SUP-T1) of 5.53 and a pIC50 (RPMI-8226) of 4.49. The pIC50 (KMS-12-BM) was 5.01 and the “DNA damage on nuclear and mitochondrial DNA (PCR band)” value [5] was “no or very minor effect on DNA damage”.

Reference: US20240316059A1, “PEPTIDE DRUG CONJUGATES” (Oncopeptides AB, priority 2021, published 2024)
